# How the values were obtained:
# Experiment in all cases: relative viability (nuclei count vs DMSO), 5 days (fraction); higher = more cells survive
# CUDC-101 + AZD7762 = compound: C#Cc1cccc(Nc2ncnc3cc(OC)c(OCCCCCCC(=O)NO)cc23)c1 [CUDC-101] + NC(=O)Nc1cc(-c2cccc(F)c2)sc1C(=O)N[C@H]1CCCNC1 [AZD7762] (partner 0.2 µM)
# Outline: (§1)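 Relative viability is defined as nuclei in treated wells over nuclei in vehicle wells. Duplicate plates were run and medians reported. Lung cancer cell lines in 1536-well plates were dosed by pin tool one day after seeding, with one drug or with a fixed anchor-drug dose plus five library-drug doses (not always all listed) in √10 steps, and nuclei were counted after 5 days.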
# NVP-TAE684 + Phenformin = compound: COc1cc(N2CCC(N3CCN(C)CC3)CC2)ccc1Nc1ncc(Cl)c(Nc2ccccc2S(=O)(=O)C(C)C)n1 [NVP-TAE684] + N=C(N)NC(=N)NCCc1ccccc1 [Phenformin] (partner 250 µM)
# Outline: as §1
# Vandetanib + Foretinib = compound: COc1cc2/c(=N/c3ccc(Br)cc3F)nc[nH]c2cc1OCC1CCN(C)CC1 [Vandetanib] + COc1cc2c(Oc3ccc(NC(=O)C4(C(=O)Nc5ccc(F)cc5)CC4)cc3F)ccnc2cc1OCCCN1CCOCC1 [Foretinib] (partner 0.25 µM)
# Outline: as §1
# Vandetanib + Olaparib = compound: COc1cc2/c(=N/c3ccc(Br)cc3F)nc[nH]c2cc1OCC1CCN(C)CC1 [Vandetanib] + O=C(c1cc(Cc2n[nH]c(=O)c3ccccc23)ccc1F)N1CCN(C(=O)C2CC2)CC1 [Olaparib] (partner 8 µM)
# Outline: as §1
Cell Line,relative viability (CUDC-101 + AZD7762; first compound 0.01 µM),relative viability (CUDC-101 + AZD7762; first compound 0.03162 µM),relative viability (CUDC-101 + AZD7762; first compound 0.1 µM),relative viability (CUDC-101 + AZD7762; first compound 0.3162 µM),relative viability (CUDC-101 + AZD7762; first compound 1 µM),relative viability (NVP-TAE684 + Phenformin; first compound 0.2 µM),relative viability (NVP-TAE684 + Phenformin; first compound 0.6325 µM),relative viability (NVP-TAE684 + Phenformin; first compound 2 µM),relative viability (Vandetanib + Foretinib; first compound 0.02 µM),relative viability (Vandetanib + Foretinib; first compound 0.06325 µM),relative viability (Vandetanib + Foretinib; first compound 0.2 µM),relative viability (Vandetanib + Foretinib; first compound 0.6325 µM),relative viability (Vandetanib + Foretinib; first compound 2 µM),relative viability (Vandetanib + Olaparib; first compound 0.02 µM),relative viability (Vandetanib + Olaparib; first compound 0.06325 µM),relative viability (Vandetanib + Olaparib; first compound 0.2 µM),relative viability (Vandetanib + Olaparib; first compound 0.6325 µM),relative viability (Vandetanib + Olaparib; first compound 2 µM)
RERF-LC-KJ,1.01,0.971,1.18,0.922,0.608,0.394,0.334,0.257,0.875,0.951,0.904,0.882,0.937,0.891,0.959,0.898,0.75,0.83
A-427,0.675,0.701,0.625,0.483,0.258,0.285,0.257,0.221,1.03,1.05,1.1,0.977,1.05,0.735,0.852,0.71,0.711,0.694
EKVX,0.84,0.68,0.656,0.771,0.563,0.24,0.23,0.208,0.821,0.695,0.795,0.794,1.17,0.854,0.761,0.904,0.813,0.563
NCI-H460,0.651,0.531,0.564,0.589,0.476,0.354,0.547,0.0633,0.934,0.992,0.952,0.953,0.997,0.37,0.399,0.336,0.45,0.462
HARA,0.31,0.507,,0.24,0.131,0.397,0.394,0.304,0.889,0.753,0.36,0.89,0.735,0.624,0.821,0.681,0.867,0.883
NCI-H1944,0.503,0.466,0.44,0.311,0.198,0.211,0.202,0.197,0.895,0.887,0.904,0.813,0.783,0.414,0.396,0.306,0.377,0.397
BEN,0.68,0.735,0.703,0.684,0.645,0.257,0.285,0.231,0.601,0.517,0.499,0.61,0.62,1.21,1.02,1.03,1.04,1.08
PC-14,0.428,0.339,0.214,0.185,0.124,0.505,0.488,0.537,0.955,0.916,0.959,0.447,0.196,0.25,0.248,0.26,0.217,0.117
NCI-H322M,0.558,0.428,0.496,0.345,0.353,0.731,0.705,0.52,0.983,0.889,0.959,0.841,0.674,0.76,0.709,0.718,0.681,0.585
NCI-H1651,0.502,0.442,0.534,0.398,0.349,0.278,0.336,0.179,0.938,0.721,0.13,0.786,0.708,0.176,0.179,0.17,0.165,0.19
LCLC-97TM1,0.264,0.211,0.343,0.305,0.248,0.4,0.382,0.113,1,0.904,0.997,0.942,0.868,0.374,0.377,0.357,0.352,0.343
NCI-H727,0.627,0.403,0.562,0.619,0.476,0.512,0.641,0.341,0.973,0.831,0.539,1.18,0.674,0.727,0.68,0.662,0.739,0.621
NCI-H1666,0.943,0.741,0.879,0.92,0.641,0.564,0.505,0.501,0.908,0.947,0.439,0.93,0.786,0.787,0.749,0.812,0.758,0.754
HCC-366,0.254,0.174,0.285,0.289,0.211,0.66,0.629,0.588,1.02,0.941,0.501,0.893,0.907,0.438,0.34,0.389,0.362,0.31
NCI-H1437,1.1,1,1.11,1.2,1.05,0.283,0.31,0.224,1.26,1.25,0.271,1.35,1.19,0.588,0.667,0.643,0.615,0.612
EPLC-272H,0.187,0.139,0.175,0.109,0.115,0.282,0.267,0.146,0.592,,0.708,0.708,0.474,0.969,0.526,1.19,0.854,0.49
HCC-15,1.3,1.08,1.2,1.15,1.18,0.495,0.396,0.238,1.05,0.96,0.577,1.04,0.973,0.72,0.677,0.782,0.713,0.722
NCI-H2347,0.934,0.653,0.697,0.791,0.569,0.252,0.302,0.294,1.01,,0.789,1.02,0.553,0.538,0.525,0.596,0.692,0.553

# — the supplement of paper PMC10307832
